The values below come from EP0452101B1, “Spiro bridged and unbridged heterocyclic compounds” (ISRAEL INSTITUTE FOR BIOLOGICAL RESEARCH, priority 1990, dated 1991).

In series [1] the test system is AF64A-injected mature rats. Put plainly: 8-arm radial maze (RAM) in AF64A-treated rats, Part A. The format is in vivo. To be noted: AF125 0.5 mg./kg. i.p. As for the experimental part:
This animal model mimics the cholinergic hypofunction and cognitive dysfunction in SDAT (Fisher and Hanin, loc cit; Fisher et al, Neurosci. Lett. 102: 325-331, 1989); the method described in the latter publication was used here.
Forty eight mature male (11-12 months) rats which were used in this study. They were injected icv with AF64A (3 nmole/2 µl./side) 8 months earlier, at the age of three months. One week before the behavioral testing, rats were transferred to individual cages and were food restricted until reaching 90% of their free feeding weight (the rats had free access to water). The room was illuminated 12 hrs a day (6:00 to 18:00) and behavioral testing sessions were carried out during the mornings. After reaching 90% of free feeding weight, rats received about 4 food pellets per day (Altromin, 15 g.) in order to further reduce the rats' weights. Two days before behavioral testing the rats were fed with precision pellets (Bioserv Inc.) which were later used for reinforcement in the maze.
Behavioral tests were conducted in an elevated (70cm) 8-arms radial maze, made of PVC. […]
Due to the size of the batch (48 rats) the experiment was conducted in two phases. […] The correct choices, number of errors and total time scores were analyzed by a 2-way ANOVA (2x2) (Injection-AF64A/saline and Treatment-AF125 0.5 mg./kg./saline).

Series [2] in a line: Chemical stability (thermal, aqueous solution). The format is physicochemical. An excerpt: Most of these compounds are relatively stable. […] Its chemical behaviour resembles that of known 2-oxazoline derivatives. […] The formation of the decomposition products can be monitored with ^1H-NMR by inspection at two regions δ 3.3-3.5 (appearance of two doublets) and 1.9-2.0 ppm (appearance of two additional singlets).
The expected decomposition pattern (when e.g., X is O and Y is N) involves opening of the oxazoline ring to form both amide and ester as shown in Scheme E, in which the quinuclidine-derived compounds are depicted illustratively. The formation of two new singlets at δ 1.9-2.0 ppm as expected for R = Me of these two structures are in agreement with this supposition. [drawing 32]
Ring opening is much faster in the presence of dilute hydrochloric acid. […] The tendency to decomposition of such salts complicates the optical separation of compounds such as AF125 and AF123. However, this problem can be overcome by using the method described for the optical separation of the enantiomers of AF125, or alternatively the amino-alcohols such as 3-aminomethylquinuclidin-3-ol can be resolved and the separated enantiomers can then be cyclized using an ester or imidate as already described. In yet another alternative the N-acyl derivatives of (e.g.) 3-aminomethylquinuclidin-3-ol can be resolved and the separated enantiomers can then be cyclized per se as shown in Scheme K: [drawing 33] […]

Series [3] relates to CA1 neurons in the hippocampal slice. Put plainly: Electrophysiological evaluation in rat hippocampal slices. As for the experimental part:
In general terms the effects of microdrops of AF150, ACh and PZ were applied to rat hippocampal cells recorded intracellularly. The exact concentrations of the drug at the receptor sites are not known, using this method. However, this method has an advantage over the perfusion method, in that it gives a more correct picture from the electrophysiological point of view (Segal, loc cit).
Intracellular responses to AF150 of CA1 neurons in the hippocampal slice were recorded, using the method of Segal. Small hyperpolarizing current pulses (current traces not shown) were alternated with stimulation of the Schaffer-commissural afferents producing postsynaptic potentials.

In a further series the test system is AF64A-treated rats. In words: Passive avoidance (PA) in AF64A-treated rats. To be noted: for Retention latency after 72 hours: i.p. The format is in vivo. An excerpt:
This animal model mimics to a certain extent the cholinergic hypofunction in SDAT (Fisher and Hanin, Ann. Rev. Pharmacol. Toxicol. 26: 161-181, 1986). The method described in Fisher et al (J. Pharmacol. Exptl. Therap., 1991, in the press) and in Fisher et al (Neurosci. Lett. 102: 325-331, 1989) was used here.
No significant differences were found among the different groups of animals tested in the initial latency test; the initial latency ranged from 20 and 31 seconds. In all the experiments using AF150, the compound as free base was dissolved in 10 mM phosphate buffer having pH 7.35.

As to `CC1=NCC2(CN3CCC2CC3)O1` (racemic) [AF125, 2-Methyl-spiro(1,3 oxazoline-5,3')quinuclidine], the Side-effects entry in series [1] is reported as “Only two saline-injected rats treated with AF125 had diarrhoea”. In series [1] (AF64A-injected rats), the “correct choices out of the first eight entries” value was 6.53±0.36. Moreover, the thermal stability result in series [2] was “thermally stable and can be distilled at 130° without decomposition”.

With `CC1=NCC2(CCN(C)CC2)O1` [AF150, 2-Methyl-spiro(1,3-oxazoline-5,4')-1'-methylpiperidine], the “slow AHP (Ca++-dependent K+ conductance)” value in series [3] (applied topically by microdrops) is “blocks the slow AHP”. In addition, in series [3] (applied topically by microdrops (AF150: 100 µM)), the depolarization entry was “potent depolarizing response”. Besides, the “input resistance at rest” value in series [3] (microdrops (100 µM)) is given as “real increase in input resistance at rest”. For the same compound, the “postsynaptic potentials (PSPs)” value in series [3] (microdrops (100 µM)) was “small reduction in postsynaptic potentials”. For the same compound, the “Retention latency after 72 hours” value in the series on AF64A-treated rats (AF150 0.1 mg./kg., rats treated with AF64A (3 nmole/2µl./side, icv)) turned out to be 449.5 ± 52.1 s; in the series on AF64A-treated rats (AF150 0.1 mg./kg., rats treated with saline), 511.8 ± 45.7 s; in the series on AF64A-treated rats (AF150 0.2 mg./kg., rats treated with AF64A) it was 481.1 ± 54.3 s; with AF64A-treated rats (AF150 0.2 mg./kg., rats treated with saline), 479.1 ± 57.2 s; in the series on AF64A-treated rats (AF150 1.0 mg./kg., rats treated with AF64A) it was 600.0 ± 0 s; in the series on AF64A-treated rats (AF150 1.0 mg./kg., rats treated with saline) it was 571.6 ± 28.4 s. For the same compound, in the series on AF64A-treated rats (administered orally at 0.2 and 1.0 mg./kg., free base, AF64A-treated rats (not shown)), the retention latency result was “improved significantly”.
